Source: article PMC7465190, “Inhibition of Tyrosyl-DNA Phosphodiesterase 1 by Lipophilic Pyrimidine Nucleosides” (Molecules, 2020)
Entries after “also recorded” stand apart in the source; their conditions may differ.

Tests used:
Tdp1 = Tdp1 (Homo sapiens, UniProt Q9NUW8); experiment: Real-time detection of Tdp1 activity (fluorophore-quencher oligonucleotide biosensor); format: biochemical; settings: 1.5 nM purified Tdp1, 50 nM biosensor, 26 °C, three independent experiments; read-out: IC50 (inhibition of Tdp-1)
Tdp1, sequence (Q9NUW8 whole entry): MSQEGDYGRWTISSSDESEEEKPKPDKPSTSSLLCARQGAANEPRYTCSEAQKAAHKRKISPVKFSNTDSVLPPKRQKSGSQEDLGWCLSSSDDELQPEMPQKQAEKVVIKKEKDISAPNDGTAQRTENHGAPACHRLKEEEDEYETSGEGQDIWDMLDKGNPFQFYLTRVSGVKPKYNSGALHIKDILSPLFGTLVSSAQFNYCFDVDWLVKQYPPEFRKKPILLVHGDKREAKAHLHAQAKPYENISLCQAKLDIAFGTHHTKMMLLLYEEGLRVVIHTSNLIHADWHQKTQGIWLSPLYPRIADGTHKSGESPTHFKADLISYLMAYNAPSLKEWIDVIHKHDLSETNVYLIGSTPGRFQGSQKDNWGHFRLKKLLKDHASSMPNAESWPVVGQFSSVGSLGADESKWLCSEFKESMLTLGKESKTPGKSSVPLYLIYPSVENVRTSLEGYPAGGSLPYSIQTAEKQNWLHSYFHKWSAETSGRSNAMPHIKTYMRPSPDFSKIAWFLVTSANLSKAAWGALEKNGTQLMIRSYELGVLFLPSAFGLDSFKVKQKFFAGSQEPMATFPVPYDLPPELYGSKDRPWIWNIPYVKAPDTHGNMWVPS
From the text: Previously, we designed a real-time oligonucleotide biosensor based on the capability of Tdp1 to remove fluorophore quenchers from the 3′ end of DNA [27]. The single-stranded substrate was a 16-mer oligonucleotide containing both a 5′-FAM fluorophore donor and a quenching 3′-BHQ moiety. When the quencher is removed by Tdp1, FAM fluorescence flares up and can be detected by a fluorimeter. Fluorescence intensity diminishes in the presence of an inhibitor; curves of the obtained Tdp1 activity versus inhibitor concentration can be used to calculate IC50 values. We also investigated some structurally related compounds obtained by previously developed methods; these compounds feature a modification either in a carbohydrate or heterocyclic moiety (Table 1).
This procedure was reported in our previous work. The approach consists of fluorescence intensity measurement in a reaction of quencher removal from a fluorophore quencher–coupled DNA oligonucleotide catalyzed by Tdp1 in the presence of an inhibitor (the control samples contained 1% of DMSO). The reaction mixtures (200 μL) contained Tdp1 buffer (50 mM Tris-HCl pH 8.0, 50 mM NaCl, and 7 mM β-mercaptoethanol), 50 nM biosensor, an inhibitor being tested, and purified Tdp1 (1.5 nM). The biosensor was a single-stranded oligonucleotide (5′-[FAM] AAC GTC AGGGTC TTC C [BHQ]-3′) containing a fluorophore at the 5′ end (5,6-FAM) and Black Hole Quencher 1 (BHQ) at the 3′ end and was synthesized in the Laboratory of Biomedical Chemistry at the Institute of Chemical Biology and Fundamental Medicine (Novosibirsk, Russia).
The reactions were incubated at a constant temperature of 26 °C on a POLARstar OPTIMA fluorimeter (BMG LABTECH, GmbH, Ortenberg, Germany) to measure fluorescence every 55 s (ex. 485/em. 520 nm) during the linear phase (here, data from minute 0 to minute 8). The values of IC50 were determined using a six-point concentration response curve in three independent experiments and were calculated using MARS Data Analysis 2.0 (BMG LABTECH).

HeLa cells [1] = experiment: Cytotoxicity in combination with topotecan, EZ4U assay; format: cell-based; settings: for change of cytotoxicity of the compound in the presence of topotecan (synergy): compound 1, 5, 20, 100 μM with 2 μM topotecan, Figure 2; for sensitizing effect on cytotoxicity of topotecan: Figure 3
Procedure: To study the influence of the inhibitors on the cytotoxic effect of topotecan, the latter from the manufacturer ACTAVIS GROUP PTC ehf. was used. To select a nontoxic but effective concentration of the nucleoside compounds, we investigated their cytotoxicity in the presence of 2 μM topotecan (concentration causing the death of half the HeLa cells). Three independent cytotoxicity assays were performed with each inhibitor in combination with topotecan. For the cells treated with a nucleoside derivative alone, values in the control wells treated with 1% DMSO were set to 100% viability. For the cells treated with a combination of the drugs, the viability of cells treated only with topotecan was set to 100%.
(§1) Intrinsic toxicity of the compounds to human cell line HeLa (cervical cancer) was examined by means of the EZ4U Cell Proliferation and Cytotoxicity Assay (Biomedica, Wien, Austria), according to the manufacturer’s protocols. The cells were grown in Iscove’s modified Dulbecco’s medium (IMDM) with 40 μg/mL gentamicin, 50 IU/mL penicillin, 50 μg/mL streptomycin (MP Biomedicals), and 10% of fetal bovine serum (Biolot) in a 5% CO2 atmosphere. After formation of a 30–50%-confluent monolayer, one of the tested compounds was added to the medium (the volume of the added reagents was 1/100 of the total volume of the culture medium, and the amount of DMSO was 1% of the final volume), and the cell culture was monitored for 3 days. Control cells were grown in the presence of 1% DMSO. To assess the influence of the inhibitors on the cytotoxic effect of topotecan, the latter from the manufacturer ACTAVIS GROUP PTC ehf. (Bucharest, Romania) was used. First of all, 50% cytotoxic concentrations of topotecan and of each inhibitor were determined to attain a defined single-agent effect. Second, three independent tests were performed with each inhibitor in combination with topotecan.

[2] = Intrinsic cytotoxicity, EZ4U Cell Proliferation and Cytotoxicity Assay; format: cell-based, human; settings: human, HeLa cells (cervical cancer), 3 days, EZ4U assay
Procedure: (§2) First, we assessed the toxicity of the compounds to HeLa cells (cervical cancer cells). Analysis of the intrinsic cytotoxicity of the compounds was examined in the EZ4U Cell Proliferation and Cytotoxicity Assay (Biomedica, Austria). The tested compounds were added to the medium (the volume of added reagents was 1/100 of the total volume of the culture medium, and the amount of DMSO (dimethyl sulfoxide) was 1% of the final volume), and the cell culture was monitored for 3 days. Control cells were grown in the presence of 1% DMSO. Intrinsic cytotoxicity of the compounds was either absent or negligible at concentrations up to 100 μM (>80% live cells) with the exception of compounds 2b, 2c, and 7, in the presence of which, at a concentration of 100 μM, 30–45% of the cells died (Table 1 and Figure 1).
as §1

HeLa cells [3] = experiment: as above; format: cell-based, human; settings: for cells died: compound at 100 μM, 3 days
Procedure: as §2, §1

[4] = compound at 20 μM, various doses of topotecan

SMILES	IC50 (Tdp1) [µM]	change of cytotoxicity of the compound in the presence of topotecan (synergy) (HeLa cells [1])	CC50 at 3 days [2] [µM]	also measured
O=c1ccn([C@@H]2O[C@H](CO)[C@@H](O)[C@H]2O)c(=O)[nH]1 [Compound 1a, Uridine, reference compound]	> 50			
O=c1[nH]c(=O)n([C@@H]2O[C@H](CO)[C@@H](O)[C@H]2O)cc1F [Compound 1b, 5-Fluorouridine, reference compound]	> 50			
O=c1[nH]c(=O)n([C@@H]2O[C@H](CO)[C@@H](O)[C@H]2O)cc1Br [Compound 1c, 5-bromouridine, reference compound]	> 50			
O=c1[nH]c(=O)n([C@@H]2O[C@H](CO)[C@@H](O)[C@H]2O)cc1I [Compound 1d, 5-Iodouridine, reference compound]	> 50			
Cc1cn([C@@H]2O[C@H](CO)[C@@H](O)[C@H]2O)c(=O)[nH]c1=O [Compound 1e, 5-Methyluridine (Ribothymidine), reference compound]	> 50			
O=c1[nH]c(=O)n([C@@H]2O[C@H](CO)[C@@H](O)[C@H]2O)cc1Cl [Compound 1f, 5-Chlorouridine, reference compound]	> 50			
O=C(OC[C@H]1O[C@@H](n2ccc(=O)[nH]c2=O)[C@H](OC(=O)c2ccccc2)[C@@H]1OC(=O)c1ccccc1)c1ccccc1 [Compound 2a, 2′,3′,5′-tri-O-benzoyluridine]	6.3 ± 0.4	Inactive		
O=C(OCC1OC(n2cc(F)c(=O)[nH]c2=O)C(OC(=O)c2ccccc2)C1OC(=O)c1ccccc1)c1ccccc1 (stereo not shown) [Compound 2b, 2′,3′,5′-Tri-O-benzoyl-5-fluorouridine]	8.5 ± 1.4	Inactive	> 100	cells died (HeLa cells [3]): 30–45%
O=C(OC[C@H]1O[C@@H](n2cc(Br)c(=O)[nH]c2=O)[C@H](OC(=O)c2ccccc2)[C@@H]1OC(=O)c1ccccc1)c1ccccc1 [Compound 2c, 2′,3′,5′-Tri-O-benzoyl-5-bromouridine]	1.5 ± 0.9	Inactive	> 100	cells died (HeLa cells [3]): 30–45%
O=C(OC[C@H]1O[C@@H](n2cc(I)c(=O)[nH]c2=O)[C@H](OC(=O)c2ccccc2)[C@@H]1OC(=O)c1ccccc1)c1ccccc1 [Compound 2d, 2′,3′,5′-tri-O-benzoyl-5-iodouridine]	0.6 ± 0.9	Inactive	> 100	
Cc1cn([C@@H]2O[C@H](COC(=O)c3ccccc3)[C@@H](OC(=O)c3ccccc3)[C@H]2OC(=O)c2ccccc2)c(=O)[nH]c1=O [Compound 2e, 2′,3′,5′-Tri-O-benzoyl-5-methyluridine]	2.7 ± 0.6	Inactive	> 100	
O=C(OCC1OC(n2cc(Cl)c(=O)[nH]c2=O)C(OC(=O)c2ccccc2)C1OC(=O)c1ccccc1)c1ccccc1 (stereo not shown) [Compound 2f, 2′,3′,5′-Tri-O-benzoyl-5-chlorouridine]	3.6 ± 1.1	Inactive	> 100	
Cc1cc(=O)[nH]c(=O)n1[C@@H]1O[C@H](COC(=O)c2ccccc2)[C@@H](OC(=O)c2ccccc2)[C@H]1OC(=O)c1ccccc1 [Compound 2g, 2′,3′,5′-Tri-O-benzoyl-6-methyluridine]	3.4 ± 0.2	significantly (p = 0.05, Mann–Whitney U test) enhanced; also recorded: synergistic effect with topotecan; also recorded: enhanced the cytotoxicity	> 100	sensitizing effect on cytotoxicity of topotecan (HeLa cells [1]; [4]): doubled the cytotoxicity of topotecan; also recorded: doubling topotecan’s activity
O=C(OC[C@H]1O[C@@H](n2ccc(=O)[nH]c2=O)[C@H](O)[C@@H]1O)c1ccccc1 [Compound 3a, 5′-O-benzoyluridine]	> 100			
O=C(O[C@@H]1[C@H](OC(=O)c2ccccc2)[C@@H](CO)O[C@H]1n1ccc(=O)[nH]c1=O)c1ccccc1 [Compound 4a, 2′,3′-di-O-benzoyluridine]	23 ± 6		> 100	
O=C(OC[C@H]1O[C@@H](n2ccc(=O)nc2)[C@H](OC(=O)c2ccccc2)[C@@H]1OC(=O)c1ccccc1)c1ccccc1 [Compound 5, 1-(2′,3′,5′-Tri-O-benzoyl-β-D-ribofuranosyl)-4-pyrimidone]	18 ± 1	significant only at the maximum concentration, 100 μM; also recorded: at a concentration of 20 μM, no synergy with topotecan was observed; also recorded: enhanced the cytotoxicity		sensitizing effect on cytotoxicity of topotecan (HeLa cells [1]; compound at 50 μM, various doses of topotecan (significant at 10 μM)): weak sensitizing effect
O=C(OC[C@H]1O[C@@H](n2cccnc2=O)[C@H](OC(=O)c2ccccc2)[C@@H]1OC(=O)c1ccccc1)c1ccccc1 [Compound 6, 1-(2′,3′,5′-Tri-O-benzoyl-β-D-ribofuranosyl)-2-pyrimidone]	6 ± 0.7	statistically insignificant	> 100	
COc1ccn([C@@H]2O[C@H](COC(=O)c3ccccc3)[C@@H](OC(=O)c3ccccc3)[C@H]2OC(=O)c2ccccc2)c(=O)n1 [Compound 7, 2′,3′,5′-Tri-O-benzoyl-2-oxo-4-metoxypyrimidine]	2.91 ± 0.01	significantly (p = 0.05, Mann–Whitney U test) enhanced; also recorded: synergistic effect with topotecan; also recorded: enhanced the cytotoxicity	> 100	cells died (HeLa cells [3]): 30–45%; sensitizing effect on cytotoxicity of topotecan (HeLa cells [1]; [4]): doubled the cytotoxicity of topotecan; also recorded: doubling topotecan’s activity
Nc1ccn([C@@H]2O[C@H](COC(=O)c3ccccc3)[C@@H](OC(=O)c3ccccc3)[C@H]2OC(=O)c2ccccc2)c(=O)n1 [Compound 8, 2′,3′,5′-tri-O-benzoylcytidine]	4.3 ± 0.7	significantly (p = 0.05, Mann–Whitney U test) enhanced; also recorded: synergistic effect with topotecan; also recorded: enhanced the cytotoxicity	> 100	sensitizing effect on cytotoxicity of topotecan (HeLa cells [1]; [4]): doubled the cytotoxicity of topotecan; also recorded: doubling topotecan’s activity
CC(=O)O[C@@H]1O[C@H](COC(=O)c2ccccc2)[C@@H](OC(=O)c2ccccc2)[C@H]1OC(=O)c1ccccc1 [Compound 9, 1-O-acetyl-2,3,5-tri-O-Bz-β-D-Rib]	4.2 ± 0.3			
CC[C@@]1(O)C(=O)OCc2c1cc1n(c2=O)Cc2cc3c(CN(C)C)c(O)ccc3nc2-1 [topotecan, reference compound]				IC50 (HeLa cells [3]; Homo sapiens, EZ4U assay, read-out: concentration causing the death of half the HeLa cells): 2 µM
